For orientation: IC50 means the point on the concentration scale where inhibition reaches its midpoint.

In assay [1] the target is T1, M. thermoresistibile OtsA R213E (Mycolicibacterium thermoresistibile, UniProt G7CGT2, R213E).
T1 sequence (G7CGT2 1-486 R213E): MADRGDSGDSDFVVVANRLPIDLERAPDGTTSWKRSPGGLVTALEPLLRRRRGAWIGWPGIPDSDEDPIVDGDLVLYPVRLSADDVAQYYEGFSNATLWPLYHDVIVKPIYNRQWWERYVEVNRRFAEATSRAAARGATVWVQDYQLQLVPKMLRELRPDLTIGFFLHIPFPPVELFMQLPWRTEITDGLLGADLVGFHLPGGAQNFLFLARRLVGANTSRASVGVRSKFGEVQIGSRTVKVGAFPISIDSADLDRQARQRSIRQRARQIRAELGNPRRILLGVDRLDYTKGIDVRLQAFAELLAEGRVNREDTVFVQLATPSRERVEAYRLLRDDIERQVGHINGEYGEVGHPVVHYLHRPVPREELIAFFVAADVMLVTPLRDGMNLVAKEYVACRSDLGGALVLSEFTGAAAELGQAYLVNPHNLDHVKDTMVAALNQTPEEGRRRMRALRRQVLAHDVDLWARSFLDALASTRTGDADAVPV
Kind of assay: Effect of allosteric regulators on OtsA activity (R213E). The class given is biochemical, Mycobacterium thermoresistibile. On the procedure:
(§1) . All reagents used were obtained from Sigma-Aldrich. The enzymatic reactions (200-μl reaction mixture) were performed at 37°C, and the reaction mixtures contained 50 mM Tris (pH 7.5), 200 mM NaCl, 10 mM MgCl2, 50 mM KCl, 0.3 mM NADH, 2.5 mM phosphoenolpyruvate (PEP), 10 units of pyruvate kinase-lactate dehydrogenase, 0.1 μM enzyme, and various concentrations of G6P and NDP-glucose to determine kinetic parameters.
(§2) […]. All experiments were performed in triplicate in a PHERAstar plate reader (BMG Labtech), and data were analyzed with Prism 5 (GraphPad Software).

Assay [2] has as its target T2, M. thermoresistibile OtsA R384E (Mycolicibacterium thermoresistibile, UniProt G7CGT2, R384E).
T2 sequence (G7CGT2 1-486 R384E): T1 sequence (G7CGT2 1-486 R213E)
Kind of assay: Effect of allosteric regulators on OtsA activity (R384E). It counts as biochemical, Mycobacterium thermoresistibile. On the procedure:
as §1, §2

Each structure is given as a SMILES string. Where only a bound is given, the exact number is not on record here.

Take `O=C(O)C(CO)OP(=O)(O)O` (centres unmarked) [2PG, 2-phosphoglyceric acid]: the IC50 was 12 mM in assay [1] and less than 100 mM in assay [2].

For the origin of these results see publication PMC6879718, “Mycobacterial OtsA Structures Unveil Substrate Preference Mechanism and Allosteric Regulation by 2-Oxoglutarate and 2-Phosphoglycerate” (mBio, 2019).
